# Experimental data published in patent US9932340B2, “Substituted indoles” (AbbVie Inc., priority 2014, dated 2018).
# Molecular target: SUV420H1 enzyme (Homo sapiens, UniProt Q4FZB7)
# Assay: TR-FRET SAH SUV420H1 enzyme inhibition assay
# Assay type: biochemical
# Settings: Histone Peptide H4(8-30)me1 and SAM, overnight at room temp, TR-FRET detection of SAH, read-out: TR-FRET SAH_SUV420H1 IC50
# Summary of the method: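 SUV420H1 (90 nM) preincubated 30 min with compound (3-fold dilutions, 50 to 0.00075 μM), then H4(8-30)me1 peptide 5 nM and SAM 4 nM added, overnight at room temp. SAH product detected by TR-FRET with Tb anti-SAH antibody and Oregon Green-SAH in RIPA buffer, 4 h; IC50 from Hill fit, asymptotes fixed 0-100%.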
# SUV420H1 enzyme, sequence (Q4FZB7 whole entry): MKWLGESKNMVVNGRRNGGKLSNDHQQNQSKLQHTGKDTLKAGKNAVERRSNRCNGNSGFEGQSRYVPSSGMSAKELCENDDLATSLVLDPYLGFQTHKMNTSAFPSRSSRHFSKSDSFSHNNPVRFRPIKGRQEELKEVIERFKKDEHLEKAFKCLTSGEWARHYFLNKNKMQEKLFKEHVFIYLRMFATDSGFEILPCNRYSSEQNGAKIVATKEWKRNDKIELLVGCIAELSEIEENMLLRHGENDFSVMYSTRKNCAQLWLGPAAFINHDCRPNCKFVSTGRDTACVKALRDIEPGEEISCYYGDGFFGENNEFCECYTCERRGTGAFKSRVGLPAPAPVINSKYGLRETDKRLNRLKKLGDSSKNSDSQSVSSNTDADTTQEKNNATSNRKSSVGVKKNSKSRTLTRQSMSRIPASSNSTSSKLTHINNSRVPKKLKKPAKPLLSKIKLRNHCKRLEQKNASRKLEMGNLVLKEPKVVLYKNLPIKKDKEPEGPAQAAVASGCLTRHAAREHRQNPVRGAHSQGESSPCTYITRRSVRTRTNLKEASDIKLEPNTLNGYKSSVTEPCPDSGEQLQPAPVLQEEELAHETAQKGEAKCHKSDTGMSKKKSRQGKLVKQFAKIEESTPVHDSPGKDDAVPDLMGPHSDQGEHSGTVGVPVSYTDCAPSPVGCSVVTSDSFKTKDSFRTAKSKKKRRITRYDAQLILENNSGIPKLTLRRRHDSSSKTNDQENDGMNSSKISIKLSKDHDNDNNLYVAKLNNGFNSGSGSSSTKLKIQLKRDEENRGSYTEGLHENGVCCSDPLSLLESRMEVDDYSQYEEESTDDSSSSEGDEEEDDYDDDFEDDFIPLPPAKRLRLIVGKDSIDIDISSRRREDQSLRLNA
row,Compound,IC50 [nM]
1,"Cc1nnccc1C(=O)NCc1cc2cc(C3=CCN(S(C)(=O)=O)CC3)cc(Cn3cnc4c(N)ncnc43)c2[nH]1 [Example 202, N-({7-[(6-amino-9H-purin-9-yl)methyl]-5-[1-(methylsulfonyl)-1,2,3,6-tetrahydropyridin-4-yl]-1H-indol-2-yl}methyl)-3-methylpyridazine-4-carboxamide]",64.1
2,"CC(=O)N1CC=C(c2cc(Cn3cnc4c(N)ncnc43)c3[nH]c(CNC(=O)c4ccnnc4C)cc3c2)CC1 [Example 203, N-({5-(1-acetyl-1,2,3,6-tetrahydropyridin-4-yl)-7-[(6-amino-9H-purin-9-yl)methyl]-1H-indol-2-yl}methyl)-3-methylpyridazine-4-carboxamide]",27.7
3,"Cc1nnccc1C(=O)NCc1cc2cc(C3=CCN(C(=O)OC(C)(C)C)CC3)cc(Cn3cnc4c(N)ncnc43)c2[nH]1 [Example 204, tert-butyl 4-{7-[(6-amino-9H-purin-9-yl)methyl]-2-({[(3-methylpyridazin-4-yl)carbonyl]amino}methyl)-1H-indol-5-yl}-3,6-dihydropyridine-1(2H)-carboxylate]",53.2
4,"Cc1cnc(C(=O)NCc2cc3cc(Cl)cc(Cn4cnc5c(N)ncnc54)c3[nH]2)cn1 [Example 205, N-({7-[(6-amino-9H-purin-9-yl)methyl]-5-chloro-1H-indol-2-yl}methyl)-5-methylpyrazine-2-carboxamide]",3430
5,"Nc1ncnc2c1ncn2Cc1cc(Cl)cc2cc(C(N)Cc3ccccc3)[nH]c12 (centres unmarked) [Example 206, 9-{[2-(1-amino-2-phenylethyl)-5-chloro-1H-indol-7-yl]methyl}-9H-purin-6-amine]",1050
6,"Nc1ncnc2c1ncn2Cc1cc(Cl)cc2cc(CNCc3ccccc3)[nH]c12 [Example 207, 9-({2-[(benzylamino)methyl]-5-chloro-1H-indol-7-yl}methyl)-9H-purin-6-amine]",943
7,"Nc1ncnc2c1ncn2Cc1cc(Cl)cc2cc(CNCc3ccccc3Br)[nH]c12 [Example 208, 9-[(2-{[(2-bromobenzyl)amino]methyl}-5-chloro-1H-indol-7-yl)methyl]-9H-purin-6-amine]",1890
8,"Nc1ncnc2c1ncn2Cc1cc(Cl)cc2cc(CNCc3cccc(Cl)c3)[nH]c12 [Example 209, 9-[(5-chloro-2-{[(3-chlorobenzyl)amino]methyl}-1H-indol-7-yl)methyl]-9H-purin-6-amine]",1920
9,"Nc1ncnc2c1ncn2Cc1cc(Cl)cc2cc(CNCc3ccccc3Cl)[nH]c12 [Example 210, 9-[(5-chloro-2-{[(2-chlorobenzyl)amino]methyl}-1H-indol-7-yl)methyl]-9H-purin-6-amine]",3340
10,"Nc1ncnc2c1ncn2Cc1cc(Cl)cc2cc(CNCc3c(Cl)cccc3Cl)[nH]c12 [Example 211, 9-[(5-chloro-2-{[(2,6-dichlorobenzyl)amino]methyl}-1H-indol-7-yl)methyl]-9H-purin-6-amine]",9330
11,"Nc1ncnc2c1ncn2Cc1cc(Cl)cc2cc(CNCc3cc(Cl)cc(Cl)c3)[nH]c12 [Example 212, 9-[(5-chloro-2-{[(3,5-dichlorobenzyl)amino]methyl}-1H-indol-7-yl)methyl]-9H-purin-6-amine]",3640
12,"Nc1ncnc2c1ncn2Cc1cc(Cl)cc2cc(CNCc3ccc(Cl)c(Cl)c3)[nH]c12 [Example 213, 9-[(5-chloro-2-{[(3,4-dichlorobenzyl)amino]methyl}-1H-indol-7-yl)methyl]-9H-purin-6-amine]",2760
13,"Nc1ncnc2c1ncn2Cc1cc(Cl)cc2cc(CNCc3ccccc3F)[nH]c12 [Example 214, 9-[(5-chloro-2-{[(2-fluorobenzyl)amino]methyl}-1H-indol-7-yl)methyl]-9H-purin-6-amine]",2840
14,"Nc1ncnc2c1ncn2Cc1cc(Cl)cc2cc(CNCc3c(F)cccc3Cl)[nH]c12 [Example 215, 9-[(5-chloro-2-{[(2-chloro-6-fluorobenzyl)amino]methyl}-1H-indol-7-yl)methyl]-9H-purin-6-amine]",3910
15,"Nc1ncnc2c1ncn2Cc1cc(Cl)cc2cc(CNCc3cc(F)cc(Cl)c3)[nH]c12 [Example 216, 9-[(5-chloro-2-{[(3-chloro-5-fluorobenzyl)amino]methyl}-1H-indol-7-yl)methyl]-9H-purin-6-amine]",2470
16,"Nc1ncnc2c1ncn2Cc1cc(Cl)cc2cc(CNCc3cc(F)ccc3Cl)[nH]c12 [Example 217, 9-[(5-chloro-2-{[(2-chloro-5-fluorobenzyl)amino]methyl}-1H-indol-7-yl)methyl]-9H-purin-6-amine]",2430
17,"Nc1ncnc2c1ncn2Cc1cc(Cl)cc2cc(CNCc3cccc(Cl)c3F)[nH]c12 [Example 218, 9-[(5-chloro-2-{[(3-chloro-2-fluorobenzyl)amino]methyl}-1H-indol-7-yl)methyl]-9H-purin-6-amine]",2330
18,"Nc1ncnc2c1ncn2Cc1cc(Cl)cc2cc(CNCc3c(F)cccc3F)[nH]c12 [Example 219, 9-[(5-chloro-2-{[(2,6-difluorobenzyl)amino]methyl}-1H-indol-7-yl)methyl]-9H-purin-6-amine]",3130

row,Compound,IC50 [nM]
1,"Nc1ncnc2c1ncn2Cc1cc(Cl)cc2cc(CNC(=O)c3ccccc3)[nH]c12 [Example 220, N-({7-[(6-amino-9H-purin-9-yl)methyl]-5-chloro-1H-indol-2-yl}methyl)benzamide]",4050
2,"Nc1ncnc2c1ncn2Cc1cc(Cl)cc2cc(CNC(=O)c3ccc(Cl)cc3)[nH]c12 [Example 221, N-({7-[(6-amino-9H-purin-9-yl)methyl]-5-chloro-1H-indol-2-yl}methyl)-4-chlorobenzamide]",6240
3,"Nc1ncnc2c1ncn2Cc1cc(Cl)cc2cc(CNC(=O)c3cccc(Cl)c3)[nH]c12 [Example 222, N-({7-[(6-amino-9H-purin-9-yl)methyl]-5-chloro-1H-indol-2-yl}methyl)-3-chlorobenzamide]",3540
4,"Nc1ncnc2c1ncn2Cc1cc(Cl)cc2cc(CNC(=O)c3ccc(F)cc3)[nH]c12 [Example 223, N-({7-[(6-amino-9H-purin-9-yl)methyl]-5-chloro-1H-indol-2-yl}methyl)-4-fluorobenzamide]",8250
5,"Nc1ncnc2c1ncn2Cc1cc(Cl)cc2cc(CNC(=O)c3cccc(F)c3)[nH]c12 [Example 224, N-({7-[(6-amino-9H-purin-9-yl)methyl]-5-chloro-1H-indol-2-yl}methyl)-3-fluorobenzamide]",2770
6,"Nc1ncnc2c1ncn2Cc1cc(Cl)cc2cc(CNC(=O)c3ccccc3F)[nH]c12 [Example 225, N-({7-[(6-amino-9H-purin-9-yl)methyl]-5-chloro-1H-indol-2-yl}methyl)-2-fluorobenzamide]",> 50000
7,"Nc1ncnc2c1ncn2Cc1cc(Cl)cc2cc(CNC(=O)c3c(F)cccc3Br)[nH]c12 [Example 226, N-({7-[(6-amino-9H-purin-9-yl)methyl]-5-chloro-1H-indol-2-yl}methyl)-2-bromo-6-fluorobenzamide]",275
8,"Nc1ncnc2c1ncn2Cc1cc(Cl)cc2cc(CNC(=O)c3c(F)cccc3Cl)[nH]c12 [Example 227, N-({7-[(6-amino-9H-purin-9-yl)methyl]-5-chloro-1H-indol-2-yl}methyl)-2-chloro-6-fluorobenzamide]",790
9,"Nc1ncnc2c1ncn2Cc1cc(Cl)cc2cc(CNC(=O)c3c(F)cccc3F)[nH]c12 [Example 228, N-({7-[(6-amino-9H-purin-9-yl)methyl]-5-chloro-1H-indol-2-yl}methyl)-2,6-difluorobenzamide]",2420
10,"Nc1ncnc2c1ncn2Cc1cc(Cl)cc2cc(CNC(=O)c3c(O)cccc3F)[nH]c12 [Example 229, N-({7-[(6-amino-9H-purin-9-yl)methyl]-5-chloro-1H-indol-2-yl}methyl)-2-fluoro-6-hydroxybenzamide]",> 50000
11,"Nc1ncnc2c1ncn2Cc1cc(Cl)cc2cc(CNC(=O)Cc3ccccn3)[nH]c12 [Example 230, N-({7-[(6-amino-9H-purin-9-yl)methyl]-5-chloro-1H-indol-2-yl}methyl)-2-(pyridin-2-yl)acetamide]",16700
12,"Nc1ncnc2c1ncn2Cc1cc(Cl)cc2cc(CNC(=O)Cc3cccnc3)[nH]c12 [Example 231, N-({7-[(6-amino-9H-purin-9-yl)methyl]-5-chloro-1H-indol-2-yl}methyl)-2-(pyridin-3-yl)acetamide]",2480
13,"Nc1ncnc2c1ncn2Cc1cc(Cl)cc2cc(CNC(=O)Cc3ccncc3)[nH]c12 [Example 232, N-({7-[(6-amino-9H-purin-9-yl)methyl]-5-chloro-1H-indol-2-yl}methyl)-2-(pyridin-4-yl)acetamide]",1980
14,"Cc1ncccc1C(=O)NCc1cc2cc(Cl)cc(Cn3cnc4c(N)ncnc43)c2[nH]1 [Example 233, N-({7-[(6-amino-9H-purin-9-yl)methyl]-5-chloro-1H-indol-2-yl}methyl)-2-methylpyridine-3-carboxamide]",236
15,"Cc1cc(C(=O)NCc2cc3cc(Cl)cc(Cn4cnc5c(N)ncnc54)c3[nH]2)c(C)nn1 [Example 234, N-({7-[(6-amino-9H-purin-9-yl)methyl]-5-chloro-1H-indol-2-yl}methyl)-3,6-dimethylpyridazine-4-carboxamide]",60.6
16,"Cc1cc(C(=O)NCc2cc3cc(C4=CCNCC4)cc(Cn4cnc5c(N)ncnc54)c3[nH]2)c(C)nn1 [Example 235, N-({7-[(6-amino-9H-purin-9-yl)methyl]-5-(1,2,3,6-tetrahydropyridin-4-yl)-1H-indol-2-yl}methyl)-3,6-dimethylpyridazine-4-carboxamide]",49.2
17,"Cc1cc(C(=O)NCc2cc3cc(C4=CCC(F)(F)CC4)cc(Cn4cnc5c(N)ncnc54)c3[nH]2)c(C)nn1 [Example 236, N-({7-[(6-amino-9H-purin-9-yl)methyl]-5-(4,4-difluorocyclohex-1-en-1-yl)-1H-indol-2-yl}methyl)-3,6-dimethylpyridazine-4-carboxamide]",33.8
